Here are results for 10 molecules from patent US12391664B2, “GluN2C/D subunit selective antagonists of the N-methyl-D-aspartate receptor” (Emory University, priority 2018, dated 2025).

The target in assay [1] is T1, recombinant rat GluN1/GluN2B (Rattus norvegicus, UniProt Q00960).
T1 construct: expressed in transfected cells; host or cells: Xenopus laevis oocytes injected with cRNA (GluN1:GluN2 ratio 1:2)
In words: Two-electrode voltage-clamp recordings in Xenopus laevis oocytes, GluN2B. Type of assay: cell-based. As to conditions: oocytes, 100 μM glutamate and 30 μM glycine. In a few lines: (§1)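 Oocytes injected with rat GluN1/GluN2 cRNA (1:2), held 2–5 days at 15–17 °C, clamped at −40 mV in Ba2+-containing recording solution, pH 7.4, 23 °C. Compounds applied (up to 100 μM) with 100 μM glutamate plus 30 μM glycine. IC50 and Hill slope from concentration-response fits of averaged current inhibition.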
On the technique in general: Two-electrode voltage clamp holds a large cell at a set potential and records current.

Assay [2] deals with T2, recombinant rat GluN1/GluN2A (Rattus norvegicus, UniProt Q00959).
T2 construct: expressed in transfected cells; host or cells: Xenopus laevis oocytes injected with cRNA (GluN1:GluN2 ratio 1:2)
T2 sequence (Q00959 23-1464, other chains not shown): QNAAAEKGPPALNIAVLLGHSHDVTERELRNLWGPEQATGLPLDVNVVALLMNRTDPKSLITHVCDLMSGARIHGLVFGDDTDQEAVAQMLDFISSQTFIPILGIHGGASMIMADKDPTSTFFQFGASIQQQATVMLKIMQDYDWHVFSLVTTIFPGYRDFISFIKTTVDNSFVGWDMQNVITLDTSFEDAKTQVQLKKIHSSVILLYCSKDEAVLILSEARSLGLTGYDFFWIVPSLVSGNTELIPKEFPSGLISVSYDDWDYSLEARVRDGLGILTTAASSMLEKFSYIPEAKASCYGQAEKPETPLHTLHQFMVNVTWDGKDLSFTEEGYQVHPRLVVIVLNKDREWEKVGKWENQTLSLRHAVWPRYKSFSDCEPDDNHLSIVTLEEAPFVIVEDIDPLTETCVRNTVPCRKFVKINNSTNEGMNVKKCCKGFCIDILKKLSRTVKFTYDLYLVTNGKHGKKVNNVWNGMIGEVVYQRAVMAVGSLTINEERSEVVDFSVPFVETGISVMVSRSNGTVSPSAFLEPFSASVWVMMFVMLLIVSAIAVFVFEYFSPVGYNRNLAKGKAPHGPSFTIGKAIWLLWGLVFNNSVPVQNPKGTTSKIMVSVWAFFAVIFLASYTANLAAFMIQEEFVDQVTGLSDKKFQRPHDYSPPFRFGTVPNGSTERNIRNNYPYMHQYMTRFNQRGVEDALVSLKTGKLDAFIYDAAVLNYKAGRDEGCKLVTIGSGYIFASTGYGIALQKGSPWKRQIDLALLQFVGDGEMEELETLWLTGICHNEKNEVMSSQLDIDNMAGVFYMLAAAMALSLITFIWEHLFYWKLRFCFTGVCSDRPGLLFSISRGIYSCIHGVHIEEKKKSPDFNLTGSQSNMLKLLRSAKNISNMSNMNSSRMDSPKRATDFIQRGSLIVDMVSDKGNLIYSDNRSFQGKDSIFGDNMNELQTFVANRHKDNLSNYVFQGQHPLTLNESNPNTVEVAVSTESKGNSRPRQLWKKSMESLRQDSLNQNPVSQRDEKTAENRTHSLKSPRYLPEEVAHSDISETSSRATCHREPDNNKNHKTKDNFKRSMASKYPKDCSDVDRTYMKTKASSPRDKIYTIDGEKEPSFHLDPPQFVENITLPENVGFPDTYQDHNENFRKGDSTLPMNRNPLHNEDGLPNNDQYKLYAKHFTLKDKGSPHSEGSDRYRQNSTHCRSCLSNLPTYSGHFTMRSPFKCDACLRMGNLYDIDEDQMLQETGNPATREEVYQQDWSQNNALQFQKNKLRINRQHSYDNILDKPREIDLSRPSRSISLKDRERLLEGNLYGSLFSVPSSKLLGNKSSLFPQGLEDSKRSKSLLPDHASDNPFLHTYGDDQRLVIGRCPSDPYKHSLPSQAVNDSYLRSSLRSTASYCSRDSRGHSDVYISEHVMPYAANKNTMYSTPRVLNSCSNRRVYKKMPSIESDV
Nature of the assay: Two-electrode voltage-clamp recordings in Xenopus laevis oocytes, GluN2A. The conditions noted are these: oocytes, 100 μM glutamate and 30 μM glycine. The class given is cell-based. In outline:
as §1

Assay [3] has as its target T3, recombinant rat GluN1/GluN2D (Rattus norvegicus, UniProt Q62645).
T3 construct: expressed in transfected cells; host or cells: Xenopus laevis oocytes injected with cRNA (GluN1:GluN2 ratio 1:2)
Nature of the assay: Two-electrode voltage-clamp recordings in Xenopus laevis oocytes, GluN2D. As to conditions: oocytes, 100 μM glutamate and 30 μM glycine. The class given is cell-based. In outline:
as §1

Assay [4] concerns recombinant GluN2A-D subunits. Nature of the assay: Two-electrode voltage-clamp recordings, statements on all receptors. Type of assay: cell-based, rat. How it is done: All target compounds were evaluated for activity by the Traynelis laboratory at Emory University using two-electrode voltage-clamp recordings performed in Xenopus laevis oocytes expressing recombinant GluN2A-D subunits (Table 1). […] Two ester compounds 997-65 and 997-66 also performed no inhibition at GluN2A to GluN2D receptors. […] Consequently, for the compounds that Acker et al. already published, it was necessary to increase the concentration to 100 μM when collecting data for a concentration effect curve. […] Therefore, under this condition, we can only conclude that compound 997-67 remained potent at GluN2C/D-containing receptors, but its selectivity over GluN2A- and GluN2B-containing receptors could not be compared to 997-57. […] Finally, replacing the carboxylic acid to the bio-isostere amide yielded compounds 997-96 and 997-115, which dropped the potency 2- to 4-fold in comparison to their corresponding acids 997-74 and 997-114.
Two-electrode voltage-clamp recordings were performed in Xenopus laevis oocytes that were injected with mRNA to express recombinant rat GluN1/GluN2A, GluN1/GluN2B, GluN1/GluN2C, and GluN1/GluN2D. The recordings using unfertilized oocytes from Xenopus laevis were permitted by Emory University Institutional Animal Care and Use Committee (IACUC). An automatic injector (Nanoject II, Drummond Scientific) was used for cRNA injection using the pipettes filled with mineral oil. The cRNA that transcribed in vitro via the mMessage Machine kit (Ambion) was diluted with nuclease-free water, and then injected at GluN1/GluN2 with a ratio of 1:2. The oocytes were stored in Barth's solution that contained 88 mM NaCl, 5.0 mM Tris-HCl, 2.4 mM NaHCO3, 1.0 mM KCl, 0.84 mM MgSO4, 0.41 mM CaCl2, 0.33 mM Ca(NO3)2, 0.1 mg/ml gentamycin sulfate, 1.0 U/ml penicillin, and 1 μg/ml streptomycin at a pH of 7.4 and temperatures of 15-17° C. for two to five days before the two-electrode voltage-clamp recordings. When recording, the oocytes were placed in a perfusion chamber and continually washed with the recording solution comprised of 90 mM NaCl, 1.0 mM KCl, 0.50 mM BaCl2, 0.005 mM EDTA, and 10 mM HEPES at a pH of 7.4 and a temperature of 23° C. Glass electrodes with a tip resistance of 0.5 to 2.5 MΩ were obtained from thin-walled glass capillary tubes. Voltage electrodes and current electrodes were filled with 0.3 M and 3.0 M KCl, respectively. The recordings were executed with the oocytes membrane potential holding at −40 m V by an OC-725 amplifier (Warner Instrument Co). All compounds were dissolved in dimethyl sulfoxide (DMSO) as 20 mM stock solutions and future diluted to reach the desired concentration (0.05-0.5% (vol/vol) DMSO) in recording solution comprised of 30 μM glycine and 100 μM glutamate. Each compound was recorded 3-7 times in the least 4 oocytes from at least 2 different Xenopus laevis.
To evaluate the inhibition of compounds, the concentration-response curve was fitted with the average two-electrode voltage-clamp recording results with the equation
[formula] • where IC50 is the concentration of compounds that inhibit half maximal of the current response and N is the Hill slope.

Assay [5] has as its target T4, recombinant rat GluN1/GluN2C (Rattus norvegicus, UniProt Q00961).
T4 construct: expressed in transfected cells; host or cells: Xenopus laevis oocytes injected with cRNA (GluN1:GluN2 ratio 1:2)
In words: Two-electrode voltage-clamp recordings in Xenopus laevis oocytes, GluN2C. Type of assay: cell-based. As to conditions: oocytes, 100 μM glutamate and 30 μM glycine. In a few lines: as §1

A further assay concerns GluN2C- and GluN2D. As to conditions: GluN2C- and GluN2D-selective potentiator; read-out: EC50 (potentiation); cited from earlier work.
Assay [6] deals with NMDA receptors that contain GluN2B (Homo sapiens, UniProt Q05586+Q13224). The conditions noted are these: cited from earlier work.
The next assay has as its target GluN2C subunit (Homo sapiens, UniProt Q14957). As to conditions: read-out: EC50 (potentiation at GluN2C subunit); cited from earlier work.

T1 sequence (Q00960 27-1482, other chains not shown): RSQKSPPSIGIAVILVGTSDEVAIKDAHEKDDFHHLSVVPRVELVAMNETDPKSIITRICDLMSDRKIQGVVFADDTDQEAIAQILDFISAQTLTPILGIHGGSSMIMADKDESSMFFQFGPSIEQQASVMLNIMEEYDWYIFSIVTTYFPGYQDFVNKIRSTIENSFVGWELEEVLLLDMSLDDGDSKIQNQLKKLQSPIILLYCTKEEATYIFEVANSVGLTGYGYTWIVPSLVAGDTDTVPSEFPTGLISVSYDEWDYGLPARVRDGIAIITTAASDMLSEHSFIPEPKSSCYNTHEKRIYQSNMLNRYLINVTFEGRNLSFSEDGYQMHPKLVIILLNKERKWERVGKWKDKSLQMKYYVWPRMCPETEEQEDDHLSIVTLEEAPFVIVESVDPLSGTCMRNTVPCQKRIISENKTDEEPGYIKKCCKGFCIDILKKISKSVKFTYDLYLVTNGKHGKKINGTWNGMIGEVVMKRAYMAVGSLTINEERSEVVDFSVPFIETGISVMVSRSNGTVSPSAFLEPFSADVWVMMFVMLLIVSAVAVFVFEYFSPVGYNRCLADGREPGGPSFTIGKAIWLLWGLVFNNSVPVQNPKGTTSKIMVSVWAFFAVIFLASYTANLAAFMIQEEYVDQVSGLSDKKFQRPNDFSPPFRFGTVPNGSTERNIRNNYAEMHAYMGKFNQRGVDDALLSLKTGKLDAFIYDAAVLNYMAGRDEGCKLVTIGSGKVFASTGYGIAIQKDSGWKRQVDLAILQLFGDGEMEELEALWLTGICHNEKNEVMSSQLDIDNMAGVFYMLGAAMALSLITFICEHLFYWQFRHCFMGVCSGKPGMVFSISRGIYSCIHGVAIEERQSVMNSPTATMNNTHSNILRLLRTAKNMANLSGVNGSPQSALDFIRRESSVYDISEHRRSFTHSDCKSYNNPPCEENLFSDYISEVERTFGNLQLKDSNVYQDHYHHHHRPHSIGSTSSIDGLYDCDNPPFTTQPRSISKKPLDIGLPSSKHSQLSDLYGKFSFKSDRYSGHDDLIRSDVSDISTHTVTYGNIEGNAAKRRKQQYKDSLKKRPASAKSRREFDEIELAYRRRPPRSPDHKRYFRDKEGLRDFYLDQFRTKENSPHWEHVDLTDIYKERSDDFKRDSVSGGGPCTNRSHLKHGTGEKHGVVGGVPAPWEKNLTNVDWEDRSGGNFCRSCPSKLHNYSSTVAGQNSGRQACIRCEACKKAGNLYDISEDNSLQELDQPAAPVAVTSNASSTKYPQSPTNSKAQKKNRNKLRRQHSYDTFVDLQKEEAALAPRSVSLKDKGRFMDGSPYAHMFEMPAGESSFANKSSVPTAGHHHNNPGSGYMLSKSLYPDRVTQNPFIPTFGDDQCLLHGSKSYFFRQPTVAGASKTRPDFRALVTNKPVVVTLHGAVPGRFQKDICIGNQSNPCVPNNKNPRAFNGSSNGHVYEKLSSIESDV
T4 sequence (Q00961 20-1237, other chains not shown): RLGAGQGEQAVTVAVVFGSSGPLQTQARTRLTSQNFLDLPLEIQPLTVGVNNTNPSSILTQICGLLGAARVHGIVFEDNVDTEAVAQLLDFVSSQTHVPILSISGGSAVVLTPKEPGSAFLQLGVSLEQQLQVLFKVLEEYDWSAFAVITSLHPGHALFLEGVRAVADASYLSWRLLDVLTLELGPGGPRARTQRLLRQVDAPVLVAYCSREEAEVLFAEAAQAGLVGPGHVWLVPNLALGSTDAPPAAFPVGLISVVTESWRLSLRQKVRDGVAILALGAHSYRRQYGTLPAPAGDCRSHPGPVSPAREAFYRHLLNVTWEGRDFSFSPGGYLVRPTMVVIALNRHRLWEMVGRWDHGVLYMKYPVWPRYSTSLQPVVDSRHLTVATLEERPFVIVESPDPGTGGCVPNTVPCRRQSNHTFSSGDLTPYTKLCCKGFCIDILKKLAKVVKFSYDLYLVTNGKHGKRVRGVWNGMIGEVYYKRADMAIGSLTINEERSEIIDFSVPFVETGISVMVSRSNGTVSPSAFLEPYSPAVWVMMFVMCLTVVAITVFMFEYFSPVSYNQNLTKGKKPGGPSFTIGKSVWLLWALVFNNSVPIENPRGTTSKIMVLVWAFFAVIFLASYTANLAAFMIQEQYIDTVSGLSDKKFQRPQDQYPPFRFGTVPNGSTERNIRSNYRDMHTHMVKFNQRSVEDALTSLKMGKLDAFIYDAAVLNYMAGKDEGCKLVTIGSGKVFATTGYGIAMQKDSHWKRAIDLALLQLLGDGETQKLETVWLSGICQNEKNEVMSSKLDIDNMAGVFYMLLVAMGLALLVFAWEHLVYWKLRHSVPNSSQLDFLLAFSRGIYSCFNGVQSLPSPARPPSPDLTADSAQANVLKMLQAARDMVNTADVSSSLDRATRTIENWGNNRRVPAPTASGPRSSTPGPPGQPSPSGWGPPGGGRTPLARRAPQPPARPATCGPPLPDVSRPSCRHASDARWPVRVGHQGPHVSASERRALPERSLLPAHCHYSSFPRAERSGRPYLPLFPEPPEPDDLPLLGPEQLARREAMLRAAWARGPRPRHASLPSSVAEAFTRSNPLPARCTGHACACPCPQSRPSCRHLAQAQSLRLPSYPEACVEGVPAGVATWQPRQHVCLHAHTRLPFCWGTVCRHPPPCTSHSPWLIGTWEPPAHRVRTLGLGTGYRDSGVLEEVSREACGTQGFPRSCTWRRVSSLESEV

Turning to `O=C(O)CCC(=O)N1N=C(c2c(-c3ccc(Cl)cc3)c3ccccc3[nH]c2=O)CC1c1ccncc1` (centres unmarked) [997-79, 4-(3-(4-(4-chlorophenyl)-2-oxo-1,2-dihydroquinolin-3-yl)-5-(pyridin-4-yl)-4,5-dihydro-1H-pyrazol-1-yl)-4-oxobutanoic acid], the “GluN2B IC50” value in assay [1] is on record as “NE (NE indicates less than 50% inhibition at 30 μM.)”. Moreover, the “GluN2A IC50” value in assay [2] was “NE (NE indicates less than 50% inhibition at 30 μM.)”. Further, the “GluN2D IC50” value in assay [3] is “NE (NE indicates less than 50% inhibition at 30 μM.)”. Besides, the “activity at all receptors (GluN2A to GluN2D), in words” value (from here on “activity at all receptors”) in assay [4] is “inactive”. Further, the “GluN2C IC50” value in assay [5] was “NE (NE indicates less than 50% inhibition at 30 μM.)”.

In the case of `O=C(O)CCC(=O)N1N=C(c2c(-c3ccc(Cl)cc3)c3ccccc3[nH]c2=O)CC1c1cnccn1` (centres unmarked) [997-80, 4-(3-(4-(4-chlorophenyl)-2-oxo-1,2-dihydroquinolin-3-yl)-5-(pyrazin-2-yl)-4,5-dihydro-1H-pyrazol-1-yl)-4-oxobutanoic acid], the “GluN2B IC50” value in assay [1] was “NE (NE indicates less than 50% inhibition at 30 μM.)”. Besides, the “GluN2A IC50” value in assay [2] is on record as “NE (NE indicates less than 50% inhibition at 30 μM.)”. Also, the “GluN2D IC50” value in assay [3] is recorded as “NE (NE indicates less than 50% inhibition at 30 μM.)”. For the same molecule, the “activity at all receptors” value in assay [4] was “inactive”. Also, in assay [5], the “GluN2C IC50” value is reported as “NE (NE indicates less than 50% inhibition at 30 μM.)”.

For the molecule `O=C(O)CCC(=O)N1N=C(c2c(-c3ccc(Cl)cc3)c3ccccc3[nH]c2=O)CC1c1cccnc1` (centres unmarked) [997-83, 4-(3-(4-(4-chlorophenyl)-2-oxo-1,2-dihydroquinolin-3-yl)-5-(pyridin-3-yl)-4,5-dihydro-1H-pyrazol-1-yl)-4-oxobutanoic acid], the “GluN2B IC50” value in assay [1] is on record as “NE (NE indicates less than 50% inhibition at 30 μM.)”. The “GluN2A IC50” value in assay [2] is given as “NE (NE indicates less than 50% inhibition at 30 μM.)”. In addition, in assay [3], the “GluN2D IC50” value is “NE (NE indicates less than 50% inhibition at 30 μM.)”. The “activity at all receptors” value in assay [4] is “inactive”. Further, the “GluN2C IC50” value in assay [5] is recorded as “NE (NE indicates less than 50% inhibition at 30 μM.)”.

As for `O=C(O)CCC(=O)N1N=C(c2c(-c3ccc(Cl)cc3)c3ccccc3[nH]c2=O)CC1c1ccncc1Cl` (centres unmarked) [997-88, 4-(3-(4-(4-chlorophenyl)-2-oxo-1,2-dihydroquinolin-3-yl)-5-(3-chloropyridin-4-yl)-4,5-dihydro-1H-pyrazol-1-yl)-4-oxobutanoic acid], in assay [1], the “GluN2B IC50” value is given as “NE (NE indicates less than 50% inhibition at 30 μM.)”. For the same molecule, the “GluN2A IC50” value in assay [2] was “NE (NE indicates less than 50% inhibition at 30 μM.)”. The “GluN2D IC50” value in assay [3] was “NE (NE indicates less than 50% inhibition at 30 μM.)”. Moreover, in assay [4], the “activity at all receptors” value was “inactive”. In assay [5], the “GluN2C IC50” value is listed as “NE (NE indicates less than 50% inhibition at 30 μM.)”.

Take `O=C(O)CC(F)(F)C(=O)N1N=C(c2ccccc2-c2cccc(F)c2)CC1c1ccc(Cl)cc1` (centres unmarked) [997-100, 4-(5-(4-chlorophenyl)-3-(3′-fluoro-[1,1′-biphenyl]-2-yl)-4,5-dihydro-1H-pyrazol-1-yl)-3,3-difluoro-4-oxobutanoic acid]: in assay [1], the “GluN2B IC50” value was “NE (NE indicates less than 50% inhibition at 30 μM.)”. Moreover, the “GluN2A IC50” value in assay [2] is reported as “NE (NE indicates less than 50% inhibition at 30 μM.)”. The “GluN2D IC50” value in assay [3] is on record as “NE (NE indicates less than 50% inhibition at 30 μM.)”. Further, the “activity at all receptors” value in assay [4] is recorded as “lost the activity”. Also, in assay [5], the “GluN2C IC50” value is reported as “NE (NE indicates less than 50% inhibition at 30 μM.)”.

With `O=C(O)CC(F)(F)C(=O)N1N=C(c2ccccc2-c2ccc(Cl)cc2)CC1c1cccc2c1OCO2` (centres unmarked) [997-119, 4-(5-(benzo[d][1,3]dioxol-4-yl)-3-(4′-chloro-[1,1′-biphenyl]-2-yl)-4,5-dihydro-1H-pyrazol-1-yl)-3,3-difluoro-4-oxobutanoic acid], the “GluN2B IC50” value in assay [1] was “NE (NE indicates less than 50% inhibition at 30 μM.)”. In addition, the “GluN2A IC50” value in assay [2] is listed as “NE (NE indicates less than 50% inhibition at 30 μM.)”. In addition, in assay [3], the “GluN2D IC50” value is “NE (NE indicates less than 50% inhibition at 30 μM.)”. The “activity at all receptors” value in assay [4] was “inactive”. In addition, the “GluN2C IC50” value in assay [5] is “NE (NE indicates less than 50% inhibition at 30 μM.)”.

In the case of `O=C(O)CCC(=O)N1N=C(c2ccccc2-c2ccc(Cl)cc2)CC1c1cccc2c1OCO2` (centres unmarked) [997-122, 4-(5-(benzo[d][1,3]dioxol-4-yl)-3-(4′-chloro-[1,1′-biphenyl]-2-yl)-4,5-dihydro-1H-pyrazol-1-yl)-4-oxobutanoic acid], the “GluN2B IC50” value in assay [1] is given as “NE (NE indicates less than 50% inhibition at 30 μM.)”. Moreover, in assay [2], the “GluN2A IC50” value was “NE (NE indicates less than 50% inhibition at 30 μM.)”. The “GluN2D IC50” value in assay [3] is on record as “NE (NE indicates less than 50% inhibition at 30 μM.)”. Also, the “activity at all receptors” value in assay [4] is “inactive”. Further, the “GluN2C IC50” value in assay [5] is given as “NE (NE indicates less than 50% inhibition at 30 μM.)”.

A word on the EC50: it is the concentration at which the effect is half-maximal. In the case of `COc1ccc(OCC2c3cc(OC)c(OC)cc3CCN2C(=O)c2cccc(Cl)c2)cc1` (centres unmarked) [CIQ, (3-chlorophenyl)(6,7-dimethoxy-1-((4-methoxyphenoxy)methyl)3,4-dihydroisoquinolin-2(1H)-yl)methanone], the EC50 in the assay with GluN2C- and GluN2D was 3 to 6 µM.

Take `CC(C(O)c1ccc(O)cc1)N1CCC(Cc2ccccc2)CC1` (centres unmarked) [Ifenprodil]: in assay [6], the “fold more potent at GluN2B than at GluN2A, GluN2C or GluN2D containing receptors” value was “approximately 200 fold”.

On to `COC(=O)c1ccc(C2C(C(C)=O)=C(O)C(=O)N2CCc2c(C)[nH]c3ccccc23)cc1` (centres unmarked) [PYD-106], for which the half-maximal effective concentration (EC50) on GluN2C subunit is 13 µM.
